From patent US9421237B2, “Tripeptide boronic acid or boronic ester, preparative method and use thereof” (PEKING UNIVERSITY, priority 2009, dated 2016)

What was measured:
[1] = molecular target: T1, 20S proteasome extracted from rat liver, chymotryptic-like (CT-L) activity (Rattus norvegicus, UniProt P18421+P28075); experiment: Proteasome inhibition, chymotryptic-like (CT-L) activity, fluorescent peptide Suc-leu-leu-Val-Tyr-AMC; assay type: biochemical; details: rat liver 20S proteasome, 37° C., 1 h
T1 construct: 20S proteasome extracted from rat liver; from tissue; host or cells: rat liver
Procedure: (§1) The activities of the proteasome were assayed using fluorescent peptides: Suc-leu-leu-Val-Tyr-AMC (Suc represents succinyl, and AMC represents 7-amino-4-methylcoumarin, purchased from SIGMA) for determining chymotryptic-like (CT-L) activity; Z-Ala-Arg-Arg-AMC (Z represents benzyloxycarbonyl, purchased from Calbiochem) for determining trypsin-like (TL) activity; and Z-leu-leu-Glu-βNA (βNA represents β-naphtylamide, purchased from SIGMA) for determining peptidyl-glutamyl-peptide-hydrolyzing (PGPH) enzyme activity.
(§2) Method for the aforesaid activity assays is as follows: 1 μg of 20S proteasome extracted from rat liver was incubated with a 100 μL solution containing various concentrations of compounds, 50 μM fluorescent peptides and 20 mM Tris-HCl at 37° C. for 1 h, respectively. The fluorescence released from AMC and RNA reagents was measured by a spectrofluorimeter Fluostar OPTIMA and BMG Germany at excitation/emission wavelengths of 380/440 nm and 335/410 nm, respectively. 0.1% DMSO was used as a solvent control. Compared with the fluorescence of solvent control, an inhibition rate was calculated.

[2] = molecular target: T2, 20S proteasome extracted from rat liver, trypsin-like (TL) activity (Rattus norvegicus, UniProt P40112+Q9JHW0); experiment: Proteasome inhibition, trypsin-like (TL) activity, fluorescent peptide Z-Ala-Arg-Arg-AMC; assay type: biochemical; details: rat liver 20S proteasome, 37° C., 1 h; read-out: T-L (IC50)
T2 construct: 20S proteasome extracted from rat liver; from tissue; host or cells: rat liver
Procedure: as §1
as §2, with “calculated. Said assays used anticancer drug bortezomib (leukemia drug), namely PS341 as compound for positive control.” for “calculated.”

[3] = molecular target: T3, 20S proteasome extracted from rat liver, peptidyl-glutamyl-peptide-hydrolyzing (PGPH) enzyme activity (Rattus norvegicus, UniProt P28073+Q9JHW0); experiment: Proteasome inhibition, PGPH activity, fluorescent peptide Z-leu-leu-Glu-βNA; assay type: biochemical; details: rat liver 20S proteasome, 37° C., 1 h
T3 construct: 20S proteasome extracted from rat liver; from tissue; host or cells: rat liver
Procedure: as §1
as §2, with “calculated. Said assays used anticancer drug bortezomib (leukemia drug), namely PS341 as compound for positive control.” for “calculated.”

[4] = system: HL-60 human leukemia cell; experiment: Preliminary anti-tumor screening in vitro, MTT method; assay type: cell-based; parameters: key to Test results: +++: inhibition rates at three doses are greater than 50%; ++: inhibition rates at two doses are greater than 50%; +: inhibition rate at one dose is greater than 50%; details: HL-60, MTT; for Test results: number of doses with inhibition > 50%; for inhibition at 0.05 µM / inhibition at 0.5 µM / inhibition at 5 µM: Homo sapiens, read-out: Inhibition rate %
Procedure: (§3) The test methods used in this test example is the routine method for anti-tumor activities test in pharmaceutical area, for example, referring to the following reference: (J. Immunol Method, 1983, 65, 55).
(§4) Test models: A: MTT method (HL-60 human leukemia); B: SRB method (BGC-823 human gastric cancer); C: SRB method (Bel-7402 human hepatocarcinoma); D: SRB method (KB human nasopharyngeal carcinoma).
(§5) The aforesaid tests were carried out with the compounds of Examples 1-26 in the present invention, test results are shown in Tables 2-5.

[5] = system: BGC-823 human gastric cancer cell; experiment: Preliminary anti-tumor screening in vitro, SRB method; assay type: cell-based; parameters: key to Test results: +++: inhibition rates at three doses are greater than 50%; ++: inhibition rates at two doses are greater than 50%; +: inhibition rate at one dose is greater than 50%; details: BGC-823, SRB; for Test results: number of doses with inhibition > 50%; for inhibition at 0.05 µM / inhibition at 0.5 µM / inhibition at 5 µM: Homo sapiens, read-out: Inhibition rate %
Procedure: as §3, §4, §5

[6] = system: Bel-7402 human hepatocarcinoma cell; experiment: as above; assay type: cell-based; parameters: key to Test results: +++: inhibition rates at three doses are greater than 50%; ++: inhibition rates at two doses are greater than 50%; +: inhibition rate at one dose is greater than 50%; details: Bel-7402, SRB; for Test results: number of doses with inhibition > 50%; for inhibition at 0.05 µM / inhibition at 0.5 µM / inhibition at 5 µM: Homo sapiens, read-out: Inhibition rate %
Procedure: as §3, §4, §5

[7] = system: KB human nasopharyngeal carcinoma cell; experiment: as above; assay type: cell-based; parameters: key to Test results: +++: inhibition rates at three doses are greater than 50%; ++: inhibition rates at two doses are greater than 50%; +: inhibition rate at one dose is greater than 50%; details: for inhibition at 0.05 µM / inhibition at 0.5 µM / inhibition at 5 µM: Homo sapiens, read-out: Inhibition rate %; for Test results: number of doses with inhibition > 50%
Procedure: as §3, §4, §5

[8] = system: BGC-823 (human gastric carcinoma cell strain); experiment: In vitro anti-tumor activity (IC50), standard MTT method; assay type: cell-based; details: 72 h, average of three determinations
Procedure: (§6) HL-60, BXPC-3 and U266 were obtained from the American Type Culture Collection (Manassas, Va.), and BGC-823 (human gastric carcinoma cell strain) was obtained from China Pharmaceutical University.
(§7) Test methods: HL-60 cells were cultured in IMDM medium containing 20% fetal bovine serum at 37° C. in 5% CO2; BGC-823 cells and BXPC-3 cells were cultured in RPMI1640 medium containing 10% fetal bovine serum at 37° C. in 5% CO2; U266 cells were cultured in RPMI1640 medium containing 15% fetal bovine serum at 37° C. in 5% CO2.
(§8) The cell growth was measured by the standard MTT method. A dispersions (150 μL, containing 3000 cells) medium was added into each well of a 96-well plate and allowed to grow, after 24 h, ten kinds of medium (50 μL) containing different concentrations of drugs were added into the corresponding wells, and continued to incubate for 72 h. Then a solution containing 5 mg/ml MTT (20 μL) was added into each well and incubated for another 4 h at 37° C. The plate was then centrifugated at 1000 rpm at 4° C. for 5 min, and the medium in upper layer was carefully discarded. The precipitates were dissolved in 100 μL of DMSO, and absorbance was read with an Infinite M200 (Tecan, Austria) microplate reader at 540 nm.
(§9) The result was expressed as IC50 value, which is the average value of three independent determinations.

[9] = system: BXPC-3 (human pancreatic cancer cell strain); experiment: as above; assay type: cell-based; details: 72 h, average of three determinations
Procedure: as §6, §7, §8, §9

[10] = system: HL-60 (promyelocytic leukemia cell strain); experiment: as above; assay type: cell-based; details: Homo sapiens, 72 h, average of three determinations
Procedure: as §6, §7, §8, §9

[11] = system: U266 (multiple myeloma cell strain); experiment: as above; assay type: cell-based; details: Homo sapiens, U-266, 72 h, average of three determinations
Procedure: as §6, §7, §8, §9

| Structure (SMILES) | IC50 [1] | IC50 [2] | Test results [4] | inhibition at 0.05 µM [4] | inhibition at 0.5 µM [4] | inhibition at 5 µM [4] | Test results [5] | inhibition at 0.05 µM [5] | inhibition at 0.5 µM [5] | inhibition at 5 µM [5] | Test results [6] | inhibition at 0.05 µM [6] | inhibition at 0.5 µM [6] | inhibition at 5 µM [6] | inhibition at 0.05 µM [7] | inhibition at 0.5 µM [7] | inhibition at 5 µM [7] | Test results [7] | IC50 [8] | IC50 [9] | other results |
| --- | --- | --- | --- | --- | --- | --- | --- | --- | --- | --- | --- | --- | --- | --- | --- | --- | --- | --- | --- | --- | --- |
| CC(C)C[C@H](NC(=O)[C@H](Cc1ccc(O)cc1)NC(=O)[C@H](Cc1ccccc1)NC(=O)c1cnccn1)B(O)O [Compound 6c, N-pyrazineformyl-L-phenylalanyl-L-tyrosyl-L-leucine Boronic Acid] | 0.395 ± 0.035 nM | > 20 nM | + | -16.1% | -8.48% | 65% | + | 2.64% | 25.1% | 97.7% | + | -2.64% | -4.84% | 71.2% | -13.6% | -5.16% | 95.4% | + | 5140 nM | 445 nM | IC50 [3]: 4.01 ± 1.47 nM; IC50 [10]: 552 nM; IC50 [11]: 250 nM; melting point: 298 to 300 °C |
| CC(C)C[C@H](NC(=O)[C@H](Cc1ccccc1)NC(=O)[C@H](Cc1ccc2ccccc2c1)NC(=O)c1cnccn1)B(O)O [Compound 6b, N-pyrazineformyl-L-naphthylalanyl-L-phenylalanyl-L-leucine Boronic Acid] | 0.417 ± 0.07 nM | > 20 nM | ++ | 3.58% | 87.3% | 88.9% | +++ | 56.4% | 93.7% | 96.7% | + | 22.9% | 56.1% | 91.6% | 23.3% | 91.5% | 96.6% | ++ | 2810 nM | 31.8 nM | IC50 [3]: 4.43 ± 1.41 nM; IC50 [10]: 10 nM; IC50 [11]: 53 nM; melting point: 134 to 135 °C |
| CC(C)C[C@H](NC(=O)[C@H](Cc1ccc2ccccc2c1)NC(=O)[C@H](Cc1ccc2ccccc2c1)NC(=O)c1cnccn1)B(O)O [Compound 6h, N-pyrazineformyl-L-naphthylalanyl-L-naphthylalanyl-L-leucine Boronic Acid] | 0.335 ± 0.078 nM | > 20 nM | ++ | 13.6% | 85.7% | 88.3% | ++ | 44.9% | 88.1% | 97.6% | + | 6.61% | 49.8% | 94.8% | 14.2% | 91.8% | 97.4% | ++ | 2450 nM | 33.3 nM | IC50 [10]: 19.6 nM; IC50 [11]: 195 nM; melting point: 145 to 146 °C |
| CC(C)C[C@H](NC(=O)[C@H](Cc1ccccc1)NC(=O)[C@H](Cc1ccc(O)cc1)NC(=O)c1cnccn1)B(O)O [Compound 6d, N-pyrazineformyl-L-tyrosyl-L-phenylalanyl-L-leucine Boronic Acid] | 0.263 ± 0.081 nM | > 20 nM | + | -21.1% | -5.04% | 87.9% | + | 4.33% | 46.7% | 97.5% | + | 1.7% | 8.79% | 90% | 3.23% | 17.3% | 96.2% | + | 2460 nM | 257 nM | IC50 [3]: 2.5 ± 1.49 nM; IC50 [10]: 445 nM; IC50 [11]: 66.2 nM; melting point: 219 to 221 °C |
